From publication PMC6934184, “Selective DNA-PKcs inhibition extends the therapeutic index of localized radiotherapy and chemotherapy” (The Journal of Clinical Investigation, 2019)

Target: T1, STK22B (TSSK2) (Homo sapiens, UniProt Q96PF2)
T1 construct: purchased Thermo Fisher Scientific (Life Technologies) SelectScreen
Experiment: SelectScreen Z'LYTE
Type: biochemical
Method in brief: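 Percent values come from Thermo SelectScreen profiling of NU5455, combining activity and binding assays. CSF1R was run in Z'LYTE format at Km app ATP, and CAMK1 in Adapta format with ATP listed at 10.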

T1 sequence (Q96PF2 whole entry): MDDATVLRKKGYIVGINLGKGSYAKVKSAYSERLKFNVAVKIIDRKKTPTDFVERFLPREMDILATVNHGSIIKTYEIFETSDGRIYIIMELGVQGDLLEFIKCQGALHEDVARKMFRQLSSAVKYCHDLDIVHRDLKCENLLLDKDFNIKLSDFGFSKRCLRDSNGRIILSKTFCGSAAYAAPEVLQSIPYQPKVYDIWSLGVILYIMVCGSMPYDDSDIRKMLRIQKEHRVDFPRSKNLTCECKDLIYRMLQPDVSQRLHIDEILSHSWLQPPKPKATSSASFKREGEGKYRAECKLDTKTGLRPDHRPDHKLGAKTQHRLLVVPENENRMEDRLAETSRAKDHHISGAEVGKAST

CN(C(=O)CN1CCOCC1)c1ccc2sc3c(-c4cccc5c(=O)cc(N6CC7CCC(C6)O7)oc45)cccc3c2c1 [NU5455]
inhibition at 1 µM: 2.8%
